Toxic doses and inconclusive results are not listed.
Tested on: BDF1 mice, P388 leukemia ip, median survival T/C
Experiment: NCI In Vivo Anticancer Drug Screen. Data for tumor model P388 Leukemia (intraperitoneal) in B6D2F1 (BDF1) mice
Settings: endpoint: median survival time, higher = longer survival
Method in brief: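 Read-out is survival of treated animals expressed relative to the vehicle group, as a T/C ratio.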

[1] = dose: 100.0 mg/kg/injection, schedule: Q01DX001 (ip), vehicle: saline with Tween-80
[2] = dose: 200.0 mg/kg/injection, schedule: Q01DX001 (ip), vehicle: saline with Tween-80
[3] = dose: 50.0 mg/kg/injection, schedule: Q01DX009 (ip), vehicle: saline with Tween-80
[4] = dose: 100.0 mg/kg/injection, schedule: Q01DX009 (ip), vehicle: saline with Tween-80
[5] = dose: 200.0 mg/kg/injection, schedule: Q01DX009 (ip), vehicle: saline with Tween-80
[6] = dose: 100.0 mg/kg/injection, schedule: Q04DX003 (ip), vehicle: Klucel (hydroxypropylcellulose) (HPC)
[7] = dose: 200.0 mg/kg/injection, schedule: Q04DX003 (ip), vehicle: Klucel (hydroxypropylcellulose) (HPC)

In the case of `CC1CCC2(C(=O)O)CCC3(C)C(=CCC4C5(C)CC(O)C(O)C(C)(C(=O)O)C5CCC43C)C2C1(C)O` (stereo not given), the T/C [1] is reported as 104 % of control and the T/C [2] is reported as 100 % of control.

In the case of `NC(=O)CC[n+]1ccccc1`, the T/C (dose: 12.5 mg/kg/injection, schedule: Q01DX009 (ip), vehicle: saline) is reported as 94 % of control, the T/C (dose: 25.0 mg/kg/injection, schedule: Q01DX009 (ip), vehicle: saline) is reported as 100 % of control and the T/C (dose: 50.0 mg/kg/injection, schedule: Q01DX009 (ip), vehicle: saline) is reported as 99 % of control.

In the case of `NC(=S)NCc1ccccc1C(O)c1ccccc1` (stereo not given), the T/C [3] is reported as 94 % of control, the T/C [4] is reported as 91 % of control and the T/C [5] is reported as 101 % of control.

With `O=c1[nH]c2cc(F)ccc2o1` the T/C [6] was 100 % of control, the T/C [7] was 95 % of control and the T/C (dose: 400.0 mg/kg/injection, schedule: Q04DX003 (ip), vehicle: Klucel (hydroxypropylcellulose) (HPC)) was 100 % of control.

`N#CCC(NC(=O)OCc1ccccc1)C(=O)OCc1ccccc1` (stereo not given) was tested, and the T/C (dose: 25.0 mg/kg/injection, schedule: Q01DX009 (ip), vehicle: saline with Tween-80) was 100 % of control, the T/C [3] was 94 % of control and the T/C (dose: 50.0 mg/kg/injection, schedule: Q04DX003 (ip), vehicle: saline with Tween-80) was 96 % of control. The T/C [4] was 88 % of control, the T/C (dose: 100.0 mg/kg/injection, schedule: Q04DX003 (ip), vehicle: saline with Tween-80) was 105 % of control and the T/C [5] was 96 % of control. For the same compound, the T/C (dose: 200.0 mg/kg/injection, schedule: Q04DX003 (ip), vehicle: saline with Tween-80) was 94 % of control, the T/C (dose: 400.0 mg/kg/injection, schedule: Q01DX009 (ip), vehicle: saline with Tween-80) was 96 % of control and the T/C (dose: 400.0 mg/kg/injection, schedule: Q04DX003 (ip), vehicle: saline with Tween-80) was 105 % of control.

With `CC1=CCCC1` the T/C (dose: 100.0 mg/kg/injection, schedule: Q01DX009 (ip), vehicle: saline) was 118 % of control, the T/C (dose: 100.0 mg/kg/injection, schedule: Q04DX003 (ip), vehicle: saline) was 113 % of control and the T/C (dose: 200.0 mg/kg/injection, schedule: Q01DX009 (ip), vehicle: saline) was 118 % of control. For the same compound, the T/C (dose: 200.0 mg/kg/injection, schedule: Q04DX003 (ip), vehicle: saline) was 104 % of control, the T/C (dose: 400.0 mg/kg/injection, schedule: Q01DX009 (ip), vehicle: saline) was 118 % of control and the T/C (dose: 400.0 mg/kg/injection, schedule: Q04DX003 (ip), vehicle: saline) was 104 % of control.

For `COc1ccc2c3c(c4cc(OC)c(OC)cc4c2c1)C[C@H]1CCCCN1C3`, the T/C (dose: 0.25 mg/kg/injection, schedule: Q01DX010 (ip), vehicle: saline) was 100 % of control, the T/C (dose: 0.5 mg/kg/injection, schedule: Q01DX010 (ip), vehicle: saline) was 120 % of control and the T/C (dose: 1.0 mg/kg/injection, schedule: Q01DX010 (ip), vehicle: saline) was 120 % of control. The T/C (dose: 2.0 mg/kg/injection, schedule: Q01DX010 (ip), vehicle: saline) was 91 % of control.

For `CCCCC[C@H](O)/C=C/[C@H]1[C@H](O)CC(=O)[C@@H]1C/C=C\CCCC(=O)O`, the T/C (dose: 50.0 mg/kg/injection, schedule: Q04DX002 (ip), vehicle: Klucel (hydroxypropylcellulose) (HPC)) was 122 % of control, the T/C (dose: 100.0 mg/kg/injection, schedule: Q04DX002 (ip), vehicle: Klucel (hydroxypropylcellulose) (HPC)) was 105 % of control and the T/C (dose: 200.0 mg/kg/injection, schedule: Q04DX002 (ip), vehicle: Klucel (hydroxypropylcellulose) (HPC)) was 114 % of control. The T/C (dose: 400.0 mg/kg/injection, schedule: Q04DX002 (ip), vehicle: Klucel (hydroxypropylcellulose) (HPC)) was 114 % of control.

For `O/N=C\c1c(O)ccc2ccccc12`, the T/C [1] was 106 % of control, the T/C [2] was 105 % of control and the T/C (dose: 400.0 mg/kg/injection, schedule: Q01DX001 (ip), vehicle: saline with Tween-80) was 106 % of control.

`COc1cccc2c1C(=O)c1c(O)c3c(c(O)c1C2=O)C[C@@](O)(C(=O)COC(=O)Cc1ccccc1)C[C@@H]3OC1CC(N)C(O)C(C)O1` (stereo not given in full) was tested, and the T/C (dose: 1.3 mg/kg/injection, schedule: Q01DX009 (ip), vehicle: saline) was 162 % of control and the T/C (dose: 2.0 mg/kg/injection, schedule: Q01DX009 (ip), vehicle: saline) was 200 % of control.

`Sc1ccc2ccccc2c1` was tested, and the T/C (dose: 50.0 mg/kg/injection, schedule: Q04DX003 (ip), vehicle: Klucel (hydroxypropylcellulose) (HPC)) was 104 % of control, the T/C (dose: 100.0 mg/kg/injection, schedule: Q01DX001 (ip), vehicle: Klucel (hydroxypropylcellulose) (HPC)) was 104 % of control and the T/C [6] was 109 % of control. The T/C (dose: 200.0 mg/kg/injection, schedule: Q01DX001 (ip), vehicle: Klucel (hydroxypropylcellulose) (HPC)) was 95 % of control, the T/C [7] was 109 % of control and the T/C (dose: 400.0 mg/kg/injection, schedule: Q01DX001 (ip), vehicle: Klucel (hydroxypropylcellulose) (HPC)) was 100 % of control.
